Patent publication US20150056702A1, “METHOD AND KIT FOR CULTURING STEM CELLS” (China Medical University, priority 2013, published 2015)

Experiments:
[1] = tested on: EGF; experiment: Real-time PCR, cytokine gene EGF in ES cells; format: cell-based, mouse; conditions: for EGF mRNA expression level: ES cells, control group = 100%
Protocol: An experimental group medium (BP5, BP10, BP20 or BP40) and a control group medium (without BP) were added respectively to perform the following steps. ES cells were cultured with an initial density of 1×10^4 per well in a 6-well culture dish. The medium was removed until the cells growth to be about 70 to 80% confluence, and then 1 ml TRIzol (Invitrogen) was added into each well. The cells were incubated for 5 minutes, and then was scraped by a spatula and placed into a 1.5 ml microtube to be lysed adequately. Chloroform (0.2 ml) was added into the microtubes. The mixture was shaken up and down for 15 seconds, and then incubated at room temperature for 2 to 3 minutes. Thereafter, the mixture was centrifuged at 12000 rpm at 4° C. for 15 minutes, and the supernatant was removed into another 1.5 ml microtube and isopropanol (0.5 ml) was added into the microtube with well mixing. The mixture was incubated at room temperature for 10 minutes and then centrifuged at 12000 rpm at 4° C. for 10 minutes. The supernatant was then removed. One ml of 70% ethanol containing DEPC.H2O was used to wash the remaining sediment. The sediment was centrifuged at 7500 rpm at 4° C. for 5 minutes. The supernatant was removed. The sediment was dried by vacuum suction. The dried samples were dissolved in about 0.01 to 0.02 ml of DEPC.H2O to obtain the experimental group RNA and control group RNA. Both groups were stored at −80° C.
The OD value of RNA samples in both groups obtained from the above Experiment I were measured at a wavelength of 260 nm (RNA: OD260=1 for a 40 μg/mL solution). Each RNA sample (2 μl) was added with RNA-free water until the volume of the sample reached 10 μl. Two μl oligo (dT) (100 μg/ml) was added into each sample, and the samples were incubated at 65° C. for 5 minutes. Then, the samples were immediately placed on ice and spun down. Next, 6.5 μl of a reaction solution [4 μl of 5× buffer+1 μl of 0.1 M DTT+1 μl of RNase out+0.5 μl of SSIII (Invitrogen)] was added into each of the samples, and the samples were incubated at 50° C. for about 30 to 60 minutes and at 75° C. for 15 minutes to obtain the experimental group cDNA and control group cDNA. Both groups were stored at −80° C.
This experiment was used to detect the expression levels of ES cell-related genes, i.e., Oct4 and Sox2, etc. First, 4 μl of the experimental group cDNA or control group cDNA was added into each well of a 96-well micro-reaction plate, and mixed with 6 μl of a reaction solution [0.5 μl of 6 μM forward primer+0.5 μl of 6 μM reverse primer+5 μl of SYBR Green PCR Master mix (Roche)], wherein the SYBR Green PCR Master mix included the reagents needed for Q-PCR, such as dNTPs, MgCl, Taq DNA polymerase and 2×SYBR® Green I solution. […] The cycle threshold (CT) values were measured. […]

[2] = tested on: Stat3; experiment: Western blot assay, Stat3 protein in ES cells; format: cell-based, mouse; conditions: for Stat3 Protein expression level: ES cells, control group = 100%
Excerpt: According to the known research at present, Jak2 and Stat3 proteins could be phosphorylated to form the active forms, and the Jak2-Stat3 signaling pathway will be activated when Jak2 and Stat3 were phosphorylated.
An experimental group medium (BP5 or BP10), a LIF-containing medium (without BP), and a control group medium (without BP) were used respectively to culture ES cells with an initial density of 1×10^4 per well in a 6-well culture dish. The medium was removed until the cells growth to be about 70 to 80% confluence. The proteins were extracted to conduct the Western blot assay by using rabbit anti-Jak2 antibody (Cell Signaling Technology), mouse anti-phospho-Jak2 antibody (Cell Signaling Technology), rabbit anti-Stat3 antibody (BD) and rabbit anti-phospho-Stat3 antibody (Cell Signaling Technology), to determine whether BP would affect the protein expression levels of the genes in the Jak-Stat3 signaling pathway.

[3] = BP10 medium (about 10 μg BP/ml)

Compound | EGF mRNA expression level ([1]; BP5 medium (about 5 μg BP/ml)) [%] | EGF mRNA expression level [1, 3] [%] | mRNA expression level of EGF ([1]; BP-containing ES cell medium, result in words) | Stat3 Protein expression level ([2]; BP5 medium (about 5 μg BP/ml)) [%] | Stat3 Protein expression level [2, 3] [%] | total protein expression and phosphorylated protein expression level of Stat3 ([2]; ES cell medium containing BP, result in words) | EGF mRNA expression level ([1]; LIF-containing medium (LIF 4 ng/ml)) [%] | Stat3 Protein expression level ([2]; LIF-containing medium (LIF 4 ng/ml, without BP)) [%]
CCCC=C1OC(=O)c2ccccc21 [BP, n-butylidenephthalide] | 110 | 204 | significantly up-regulated | 139 | 165 | increased significantly |  | 
LIF: multifunctional cell factor used to maintain pluripotency of stem cells; LIF-containing medium (4 ng/ml, without BP) as comparison |  |  |  |  |  |  | 145 | 140
